{
  "source": "patent US20250032488A1",
  "about": "“METHODS OF TREATMENT USING LOU064” (NOVARTIS AG, priority 2021, published 2025)",
  "key": {"BTK [1]": {"target": "T1, BTK (Mus musculus, UniProt P35991)", "T1 construct": "each spleen was crushed and lysed in a GentleMACS; from tissue; host or cells: mouse spleen (BALB/c, C57Bl6) and lung (C57Bl6)", "T1 sequence (P35991 whole entry)": "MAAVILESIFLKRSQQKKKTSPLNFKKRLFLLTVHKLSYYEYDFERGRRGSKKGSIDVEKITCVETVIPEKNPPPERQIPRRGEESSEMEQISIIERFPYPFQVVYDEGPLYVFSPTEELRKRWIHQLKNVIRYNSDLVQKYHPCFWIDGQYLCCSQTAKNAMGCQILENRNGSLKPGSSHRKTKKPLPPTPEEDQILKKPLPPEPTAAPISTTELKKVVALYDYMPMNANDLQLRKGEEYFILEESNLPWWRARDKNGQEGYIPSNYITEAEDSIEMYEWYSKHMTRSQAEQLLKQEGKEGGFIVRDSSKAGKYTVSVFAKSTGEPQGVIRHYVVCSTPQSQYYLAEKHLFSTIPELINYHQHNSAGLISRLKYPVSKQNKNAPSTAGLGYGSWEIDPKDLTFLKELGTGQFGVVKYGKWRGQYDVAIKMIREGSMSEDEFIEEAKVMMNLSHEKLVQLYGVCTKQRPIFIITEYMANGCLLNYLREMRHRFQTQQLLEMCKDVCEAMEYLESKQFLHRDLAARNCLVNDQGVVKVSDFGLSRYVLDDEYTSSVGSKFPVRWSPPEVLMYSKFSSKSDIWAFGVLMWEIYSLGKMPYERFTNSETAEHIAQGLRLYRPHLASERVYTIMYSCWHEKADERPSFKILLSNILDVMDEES", "experiment": "BTK occupancy in spleen, PCA study", "assay_type": "in vivo, mice", "details": "2.5 hours after second oral dose, read-out: BTK occupancy in spleen relative to vehicle controls", "description": "The levels of BTK occupancy after dosing of LOU064 was determined in separate ELISAs for total BTK protein and for bound BTK (=free BTK).\nCovalent binding of compounds to BTK was determined with immunoassays for free BTK (i.e., not covalently occupied by compound) and total BTK protein. For free BTK measurements, samples were incubated with a biotinylated covalent BTK probe (Pulz R et al, ACS Med. Chem. Lett. 2019, 10, 1467-1472) then samples were added to streptavidin ELISA plates to allow binding of probe-bound BTK. The binding of the probe to BTK is mutually exclusive with compound binding to BTK. Plate-bound BTK was detected with an anti-BTK antibody (D3H5, Cell Signaling Technology). For total BTK measurements, an ELISA plate was coated with D3H5 anti-BTK to capture total BTK. An anti-BTK antibody (no. 53, BD Biosciences) directed to a different epitope was then used to detect captured BTK. The respective free BTK levels for each sample were normalized to the total BTK level in the same sample, and these ratios were expressed as percentage of the vehicle control samples. […]\nThe relative BTK occupancy was calculated as the ratio of free BTK (signal of bound BTK) to total BTK for each sample: Ri=free BTK/total BTK. The individual Ri values were then normalized to the vehicle group and expressed as percent occupancy: (average of Ri vehicle group-Ri)/(average of Ri vehicle group)*100%"}, "BTK [2]": {"target": "T1, BTK", "experiment": "BTK occupancy in spleen and lung, RPA study", "assay_type": "in vivo, mice", "details": "single dose 30 mg/kg, 3 hours after eliciting the Arthus reaction", "description": "For BTK occupancy in spleen, the experiment was performed as described in the PCA example. For lung BTK occupancy, lysates were prepared from complete lungs including tracheas after perfusing the organs with saline to remove blood in the same manner as for spleen (except that the lysis buffer volume was 500 μl). The lung lysates were then analyzed for free BTK in a separate ELISA. This consisted of a capture step with anti-BTK (Cell Signaling Technologies, #8547, carrier free). Then the captured BTK protein was incubated with 1 μM of covalent biotinylated BTK probe for 1 hour at room temperature. The BTK-bound biotinylated probe was detected by with a streptavidin-HRP conjugate (Cell Signaling Technologies, #3999, used at a dilution of 1:1′000) and a chemiluminescence substrate (Supersignal ELISA Pico, Thermo Scientific, #37070). The luminescence values were corrected for ELISA background reads from control samples measured in absence of BTK capture antibody for the total BTK ELISA and in absence of probe for the BTK-bound ELISA, respectively. The relative BTK occupancy was calculated as the ratio of free BTK (signal of the covalent biotinylated probe bound BTK) to total BTK for each sample: R=free BTK/total BTK. The individual Ri values were then normalized to the vehicle group and expressed as percent occupancy: (average of Ri vehicle group−Ri)/(average of Ri vehicle group)*100%."}, "BTK [3]": {"target": "T2, BTK (Homo sapiens, UniProt Q06187)", "T2 construct": "simulate BTK occupancy in human spleen/tissues across a range of doses; from tissue; host or cells: human spleen/tissues (simulated, not sampled)", "T2 sequence (Q06187 whole entry)": "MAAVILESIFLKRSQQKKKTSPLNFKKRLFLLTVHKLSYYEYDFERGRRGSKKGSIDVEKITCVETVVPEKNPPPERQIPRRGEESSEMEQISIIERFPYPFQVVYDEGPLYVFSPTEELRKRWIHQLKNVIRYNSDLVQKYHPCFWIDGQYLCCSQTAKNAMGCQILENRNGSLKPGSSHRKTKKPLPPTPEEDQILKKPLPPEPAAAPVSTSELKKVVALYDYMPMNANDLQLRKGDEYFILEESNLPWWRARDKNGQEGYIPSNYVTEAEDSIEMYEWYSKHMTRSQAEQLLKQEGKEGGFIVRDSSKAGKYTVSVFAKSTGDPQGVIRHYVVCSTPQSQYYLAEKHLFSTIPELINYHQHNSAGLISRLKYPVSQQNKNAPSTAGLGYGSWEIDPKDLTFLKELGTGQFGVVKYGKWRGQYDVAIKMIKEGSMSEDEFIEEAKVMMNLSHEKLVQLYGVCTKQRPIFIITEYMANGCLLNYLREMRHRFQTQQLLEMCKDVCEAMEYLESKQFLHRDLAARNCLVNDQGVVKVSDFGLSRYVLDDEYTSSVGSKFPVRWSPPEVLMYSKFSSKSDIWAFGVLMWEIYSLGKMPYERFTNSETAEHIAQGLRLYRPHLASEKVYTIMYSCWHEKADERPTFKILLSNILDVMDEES", "experiment": "Translational PK/PD model: simulated BTK occupancy in human spleen/tissues", "details": "from prediction model of spleen BTK occupancy and HED", "description": "The purpose of this analysis was to characterize the pharmacokinetics (PK) of LOU064 in healthy volunteers and to use a previously developed, translational target occupancy model to simulate BTK occupancy in human spleen/tissues across a range of doses and dosing regimen (B.I.D vs QD).\nPharmacokinetic data from a Phase I clinical study reported by Kaul et al. (2021) were used in the current analysis, including 102 patients.\nA translational target occupancy model to simulate BTK occupancy in spleen/tissues was developed using a two-step approach.\nIn a first step, a population PK model was established to describe LOU064 PK data from Phase I clinical study reported by Kaul et al. (2021). In a second step, the parameter estimates from the population PK model were used in the BTK occupancy model to predict BTK occupancy in blood and spleen/tissues. Ultimately the BTK occupancy model was used to predict the BTK occupancy in spleen/tissues for different dosing regimens (QD, B.I.D) at different doses."}, "[4]": {"experiment": "Co-administration with oral contraceptives", "assay_type": "in vivo", "description": "Therefore, in a preferred embodiment, LOU064 is co-administered with oral contraceptives."}, "subjects with CSU": {"test_system": "subjects with CSU", "experiment": "52-week open label extension study in CSU: safety", "quoted_text": "In a 52-week open label extension study to evaluate the long-term safety and tolerability of LOU064 in eligible subjects with CSU who participated in the Phase 2b study the dose used was 100 mg b.i.d."}, "[5]": {"details": "100 mg B.I.D., N = 100, interim cut off 31 Aug. 2020"}, "[6]": {"details": "ES, 100 mg b.i.d., N = 183, median 35.14 wks, listed as remibrutinib"}},
  "data": [
    {"smiles": "C=CC(=O)N(C)CCOc1c(N)ncnc1-c1cc(F)cc(NC(=O)c2ccc(C3CC3)cc2F)c1C", "note": "[LOU064, N-(3-(6-amino-5-(2-(N-methylacrylamido)ethoxy)pyrimidin-4-yl)-5-fluoro-2-methylphenyl)-4-cyclopropyl-2-fluorobenzamide]", "values": [
      {"measurement": "receptor occupancy at 3 mg/kg", "setting": "BTK [1]", "value": 89.1, "unit": "%"},
      {"measurement": "BTK occupancy kinetic in spleen and lung compared to effect on skin swelling", "setting": "BTK [2]", "value": "very similar kinetic"},
      {"measurement": "Minimal human effective dose", "setting": "BTK [3]", "value": 25, "unit": "mg b.i.d"},
      {"measurement": "Impact on exposure and efficacy of oral contraceptives (ethinylestradiol or levonorgestrel)", "setting": "[4]", "value": "without a major impact"},
      {"measurement": "Death", "setting": "subjects with CSU; [5]", "value": 0, "unit": "n"},
      {"measurement": "Discontinued study due to an SAE(s)", "setting": "subjects with CSU; [5]", "value": 0, "unit": "n"},
      {"measurement": "Discontinued study due to any AE(s)", "setting": "subjects with CSU; [5]", "value": 0, "unit": "n"},
      {"measurement": "AE preferred term diarrhea", "setting": "subjects with CSU; 100 mg b.i.d., N = 100 interim", "value": 4, "unit": "%"},
      {"measurement": "AE preferred term dizziness", "setting": "subjects with CSU; 100 mg b.i.d., N = 100 interim", "value": 3, "unit": "%"},
      {"measurement": "AE preferred term gastroenteritis", "setting": "subjects with CSU; 100 mg b.i.d., N = 100 interim", "value": 3, "unit": "%"},
      {"measurement": "AE preferred term headache", "setting": "subjects with CSU; 100 mg b.i.d., N = 100 interim", "value": 6, "unit": "%"},
      {"measurement": "Bleeding events or events under SOC Blood and lymphatic system disorders", "setting": "subjects with CSU; 100 mg b.i.d., N = 100 interim", "value": "no bleeding events"},
      {"measurement": "SOC Infections and infestations", "setting": "subjects with CSU; 100 mg b.i.d., N = 100 interim", "value": 14, "unit": "%"},
      {"measurement": "SOC Skin and subcutaneous tissue disorders", "setting": "subjects with CSU; 100 mg b.i.d., N = 100 interim", "value": 13, "unit": "%"},
      {"measurement": "Safety signal", "setting": "subjects with CSU; 100 subjects, median exposure 17.86 weeks", "value": "No safety signal"},
      {"measurement": "ECG findings or QT of >500 ms", "setting": "subjects with CSU; ES and CS, any patient", "value": "no significant ECG findings or QT of >500 ms"},
      {"measurement": "Deaths", "setting": "subjects with CSU; ES, 100 mg b.i.d., N = 183", "value": "no deaths"},
      {"measurement": "Incidence of AESI bleeding", "setting": "subjects with CSU; ES, 100 mg b.i.d., N = 183", "value": 4.4, "unit": "%"},
      {"measurement": "Incidence of AESI cytopenias", "setting": "subjects with CSU; ES, 100 mg b.i.d., N = 183", "value": 0.5, "unit": "%"},
      {"measurement": "Incidence of AESI infections", "setting": "subjects with CSU; ES, 100 mg b.i.d., N = 183", "value": 23, "unit": "%"},
      {"measurement": "Skin and subcutaneous tissue disorders (AEs by primary system organ class)", "setting": "subjects with CSU; ES, 100 mg b.i.d., N = 183, median 35.14 wks", "value": 32, "unit": "n"},
      {"measurement": "Discontinued study treatment due to AE(s)", "setting": "subjects with CSU; [6]", "value": 6, "unit": "n"},
      {"measurement": "Headache (AEs by PT)", "setting": "subjects with CSU; [6]", "value": 6.6, "unit": "%"},
      {"measurement": "Infections and infestations (AEs by primary system organ class)", "setting": "subjects with CSU; [6]", "value": 23.0, "unit": "%"},
      {"measurement": "Patients with SAE(s)", "setting": "subjects with CSU; [6]", "value": 4, "unit": "n"},
      {"measurement": "Skin and subcutaneous tissue disorders (AEs by primary system organ class)", "setting": "subjects with CSU; [6]", "value": 17.5, "unit": "%"},
      {"measurement": "Patients with newly occurring isolated ALT>3xULN", "setting": "subjects with CSU; ES, normalized within 4 weeks", "value": 1, "unit": "patient"}
    ]}
  ]
}
